Experimental data from PMC9389804 (Journal of Hematology & Oncology, 2022).
Values joined by “and” are separate entries in the source; they are usually repeats but may differ in a detail not shown here. Equal values may be shown once.

Assay: safety assessments (adverse events, NCI CTCAE)
Settings: for Treatment-related cardiovascular events: any grade
[1] = median follow-up of nearly 3 years
[2] = nonhematologic TRAE, all 165 patients
[3] = treatment-related CVE G 3/4, Accelerated phase n=38
[4] = treatment-related CVE G 3/4, Chronic phase n=127
[5] = treatment-related CVE G 3/4, Total n=165
[6] = treatment-related CVE any grade, Accelerated phase n=38
[7] = treatment-related CVE any grade, Chronic phase n=127
[8] = treatment-related CVE any grade, Total n=165

SMILES: Cc1ccc(C(=O)Nc2ccc(CN3CCN(C)CC3)c(C(F)(F)F)c2)cc1C#Cc1cnc2[nH]ncc2c1 [olverembatinib]
- Hematologic (TRAE any grades, Total n=165): 138 (83.6) n (%)
- Hyperbilirubinemia (TRAE any grades, Total n=165): 69 (41.8) n (%)
- Hyperglycemia (TRAE any grades, Total n=165): 43 (26.1) n (%)
- Hypertriglyceridemia (TRAE any grades, Total n=165): 95 (57.6) n (%)
- Hypoalbuminemia (TRAE any grades, Total n=165): 26 (15.8) n (%)
- Hypocalcemia (TRAE any grades, Total n=165): 64 (38.8) n (%)
- Hypokalemia (TRAE any grades, Total n=165): 42 (25.5) n (%)
- Hyponatremia (TRAE any grades, Total n=165): 38 (23.0) n (%)
- Increased alanine aminotransferase (TRAE any grades, Total n=165): 59 (35.8) n (%)
- Increased alkaline phosphatase (TRAE any grades, Total n=165): 21 (12.7) n (%)
- Increased aspartate aminotransferase (TRAE any grades, Total n=165): 59 (35.8) n (%)
- Increased creatine phosphokinase (TRAE any grades, Total n=165): 48 (29.1) n (%)
- Increased γ-glutamyl transferase (TRAE any grades, Total n=165): 47 (28.5) n (%)
- Leukopenia (TRAE any grades, Total n=165): 56 (33.9) n (%)
- Myalgia (TRAE any grades, Total n=165): 31 (18.8) n (%)
- Neutropenia (TRAE any grades, Total n=165): 26 (15.8) n (%)
- Nonhematologic (TRAE any grades, Total n=165): 165 (100.0) n (%)
- Pain in extremity (TRAE any grades, Total n=165): 21 (12.7) n (%)
- Proteinuria (TRAE any grades, Total n=165): 84 (50.9) n (%)
- Pyrexia (TRAE any grades, Total n=165): 30 (18.2) n (%)
- Rash (TRAE any grades, Total n=165): 27 (16.4) n (%)
- Sinus tachycardia (TRAE any grades, Total n=165): 30 (18.2) n (%)
- Skin pigmentation (TRAE any grades, Total n=165): 139 (84.2%) n (%) and 139 (84.2) n (%)
- Thrombocytopenia (TRAE any grades, Total n=165): 126 (76.4) n (%)
- Treatment-related adverse events (TRAE any grades, Total n=165): 165 (100.0) n (%)
- Adverse events resulting in dose interruption (Total n=165): 86 (52.1%) n (%) and 86 (52.1) n (%)
- Adverse events resulting in dose reduction (Total n=165): 50 (30.3%) n (%) and 50 (30.3) n (%)
- Adverse events resulting in treatment discontinuation (Total n=165): 13 (7.9) n (%)
- severe thrombocytopenia leading to dose reduction (all 165 patients): 15.8%
- Treatment-related cardiovascular events (Accelerated phase n=38): 9 (23.7) n (%)
- Treatment-related cardiovascular events (Chronic phase n=127): 44 (34.6) n (%)
- Treatment-related cardiovascular events (Total n=165): 53 (32.1%) n (%) and 53 (32.1) n (%)
- median time to temporary treatment suspension or dose reduction (for SAEs): 5 months
- patients requiring temporary treatment suspension or dose reduction (for SAEs): 75 (46.0%) n (%)
- myelosuppression, median duration (in vivo): 36 (7–718) days
- myelosuppression, median onset time (in vivo): 28 (4–676) days
- patients in whom CVEs were grade 1 or 2 (in vivo): 88.5%
- patients who received platelet transfusions (in vivo): 11.5%
- patients who received red blood cell transfusions (in vivo): 9.7%
- median duration of treatment interruptions (interruptions due to AEs): 56 days
- median number of treatment interruptions (interruptions due to AEs): 2
- incidence of arterial occlusive and venous thrombotic events [1]: 5.0%
- olverembatinib-related CVEs [1]: 32.0%
- median time to onset of nonhematologic TRAEs (most frequent nonhematologic TRAEs): 70 days
- Hyperbilirubinemia [2]: 41.8%
- Hypertriglyceridemia [2]: 57.6%
- Hypocalcemia [2]: 38.8%
- Proteinuria [2]: 50.9%
- elevated liver transaminases [2]: 35.8%
- patients with Fridericia-corrected QT interval exceeding 500 ms on treatment (patients with CVEs): None
- renal function according to estimated glomerular filtration rate (patients with persistent proteinuria): did not observe decreased renal function
- Anemia (serious AE (SAE)): 6.0%
- Atrial fibrillation (serious AE (SAE)): 2.0%
- Pneumonia (serious AE (SAE)): 3.0%
- Pyrexia (serious AE (SAE)): 2.0%
- Thrombocytopenia (serious AE (SAE)): 9.0%
- acute MI, cholelithiasis, pericardial effusion, upper-respiratory-tract infection, and urinary-tract infection (each) (serious AE (SAE)): 1%
- Acute coronary syndrome [3]: 0 n (%)
- Acute myocardial infarction [3]: 0 n (%)
- Angina pectoris [3]: 0 n (%)
- Arrhythmia [3]: 0 n (%)
- Arteriosclerosis coronary artery [3]: 0 n (%)
- Atrial fibrillation [3]: 1 (2.6) n (%)
- Atrial tachycardia [3]: 0 n (%)
- Cardiomegaly [3]: 0 n (%)
- Cerebral infarction [3]: 0 n (%)
- Lacunar infarction [3]: 0 n (%)
- Palpitations [3]: 0 n (%)
- Pericardial effusion [3]: 1 (2.6) n (%)
- Retinal-vein occlusion [3]: 0 n (%)
- Supraventricular extrasystoles [3]: 0 n (%)
- Ventricular extrasystoles [3]: 0 n (%)
- Acute coronary syndrome [4]: 1 (0.8) n (%)
- Acute myocardial infarction [4]: 1 (0.8) n (%)
- Angina pectoris [4]: 0 n (%)
- Arrhythmia [4]: 1 (0.8) n (%)
- Arteriosclerosis coronary artery [4]: 1 (0.8) n (%)
- Atrial fibrillation [4]: 1 (0.8) n (%)
- Atrial tachycardia [4]: 0 n (%)
- Cardiomegaly [4]: 0 n (%)
- Cerebral infarction [4]: 1 (0.8) n (%)
- Lacunar infarction [4]: 1 (0.8) n (%)
- Palpitations [4]: 0 n (%)
- Pericardial effusion [4]: 1 (0.8) n (%)
- Retinal-vein occlusion [4]: 2 (1.6) n (%)
- Supraventricular extrasystoles [4]: 0 n (%)
- Ventricular extrasystoles [4]: 0 n (%)
- Acute coronary syndrome [5]: 1 (0.6) n (%)
- Acute myocardial infarction [5]: 1 (0.6) n (%)
- Angina pectoris [5]: 0 n (%)
- Arrhythmia [5]: 1 (0.6) n (%)
- Arteriosclerosis coronary artery [5]: 1 (0.6) n (%)
- Atrial fibrillation [5]: 2 (1.2) n (%)
- Atrial tachycardia [5]: 0 n (%)
- Cardiomegaly [5]: 0 n (%)
- Cerebral infarction [5]: 1 (0.6) n (%)
- Lacunar infarction [5]: 1 (0.6) n (%)
- Palpitations [5]: 0 n (%)
- Pericardial effusion [5]: 2 (1.2) n (%)
- Retinal-vein occlusion [5]: 2 (1.2) n (%)
- Supraventricular extrasystoles [5]: 0 n (%)
- Ventricular extrasystoles [5]: 0 n (%)
- Acute coronary syndrome [6]: 0 n (%)
- Acute myocardial infarction [6]: 0 n (%)
- Angina pectoris [6]: 0 n (%)
- Arrhythmia [6]: 0 n (%)
- Arteriosclerosis coronary artery [6]: 0 n (%)
- Atrial fibrillation [6]: 3 (7.9) n (%)
- Atrial tachycardia [6]: 0 n (%)
- Cardiomegaly [6]: 0 n (%)
- Cerebral infarction [6]: 0 n (%)
- Lacunar infarction [6]: 0 n (%)
- Palpitations [6]: 1 (2.6) n (%)
- Pericardial effusion [6]: 3 (7.9) n (%)
- Retinal-vein occlusion [6]: 0 n (%)
- Supraventricular extrasystoles [6]: 2 (5.3) n (%)
- Ventricular extrasystoles [6]: 0 n (%)
- Acute coronary syndrome [7]: 1 (0.8) n (%)
- Acute myocardial infarction [7]: 1 (0.8) n (%)
- Angina pectoris [7]: 1 (0.8) n (%)
- Arrhythmia [7]: 1 (0.8) n (%)
- Arteriosclerosis coronary artery [7]: 1 (0.8) n (%)
- Atrial fibrillation [7]: 2 (1.6) n (%)
- Atrial tachycardia [7]: 1 (0.8) n (%)
- Cardiomegaly [7]: 1 (0.8) n (%)
- Cerebral infarction [7]: 1 (0.8) n (%)
- Lacunar infarction [7]: 1 (0.8) n (%)
- Palpitations [7]: 1 (0.8) n (%)
- Pericardial effusion [7]: 11 (8.7) n (%)
- Retinal-vein occlusion [7]: 3 (2.4) n (%)
- Supraventricular extrasystoles [7]: 3 (2.4) n (%)
- Ventricular extrasystoles [7]: 7 (5.5) n (%)
- Acute coronary syndrome [8]: 1 (0.6) n (%)
- Acute myocardial infarction [8]: 1 (0.6) n (%)
- Angina pectoris [8]: 1 (0.6) n (%)
- Arrhythmia [8]: 1 (0.6) n (%)
- Arteriosclerosis coronary artery [8]: 1 (0.6) n (%)
- Atrial fibrillation [8]: 5 (3.0) n (%)
- Atrial tachycardia [8]: 1 (0.6) n (%)
- Cardiomegaly [8]: 1 (0.6) n (%)
- Cerebral infarction [8]: 1 (0.6) n (%)
- Lacunar infarction [8]: 1 (0.6) n (%)
- Palpitations [8]: 2 (1.2) n (%)
- Pericardial effusion [8]: 14 (8.5) n (%)
- Retinal-vein occlusion [8]: 3 (1.8) n (%)
- Supraventricular extrasystoles [8]: 5 (3.0) n (%)
- Ventricular extrasystoles [8]: 7 (4.2) n (%)
